Measured values: patent US20040157821A1, “Sulfate of cephem compound” (priority 2001, published 2004)
Structures can show the parent of a compound that is named as a salt.

Experiments:
[1] = turbidity / appearance of an aqueous solution containing the crystal; assay type: physicochemical; conditions: for turbidity Abs(600 nm): aqueous solution, absorbance 600 nm
Protocol: (§1) The crystals obtained in the above examples were filled into vials and the residue rate thereof was examined through the acceleration stability test at 40° C. Further, the turbidity of an aqueous solution containing the crystal was determined.
(§2) The monosulfate crystal of compound (I) obtained in Example 9 was filled into vials and the residue rate thereof was examined through the acceleration stability test at 40° C. Further, the turbidity was determined.
(§3) The crystals obtained in Example 10 were filled into vials and the residue rate thereof was examined through the acceleration stability test at 40° C. Further, the turbidity of solutions was determined.

[2] = acceleration stability test at 40° C. of crystals filled into vials (residue rate, appearance); assay type: physicochemical; conditions: for residue rate (%) / appearance (of powder): 40° C., vial
Protocol: as §1, §2
As a reference compound, used was a lyophilization product of monohydrochloride of compound (I) (non-crystal, KF value: 1.7%, 0.6 H2O) obtained according to the method of Example 6-2 of WO 00/32606.
as §3

turbidity upon being dissolved into water (in words) ([1]; after storage at 40° C.)	turbidity Abs(600 nm) ([1]; after 1 month at 40° C.)	turbidity Abs(600 nm) ([1]; initial)	residue rate (%) ([2]; 1 month)	appearance (of powder) ([2]; initial)	residue rate (%) ([2]; initial)	stability (in words) ([2]; acceleration stability test at 40° C.)	appearance (of powder) ([2]; 1 month)	appearance of solution ([1]; after 1 month at 40° C.)	appearance of solution ([1]; after 2 month at 40° C.)	turbidity Abs(600 nm) ([1]; after 2 month at 40° C.)	appearance of solution ([1]; initial)	appearance (of powder) ([2]; 2 month)	residue rate (%) ([2]; 2 month)	Structure (SMILES)
turbidity was hardly observed	0.002	0.002	98.5%	white powder	100.0%	high stability for a long period	–	–	–	–	–	–	–	CCO/N=C(\C(=O)N[C@@H]1C(=O)N2C(C(=O)[O-])=C(C[n+]3cccc4c3NCN4CCCNC)CS[C@H]12)c1nsc(N)n1 [Example 10]
–	0.011	0.000	99.6%	white	100.0%	–	white	–	–	–	–	–	–	CCO/N=C(\C(=O)N[C@@H]1C(=O)N2C(C(=O)[O-])=C(C[n+]3cccc4c3NCN4CCCNC)CS[C@H]12)c1nsc(N)n1 [Example 6(1)]
–	0.007	0.006	99.0%	white	100.0%	–	white	–	–	–	–	–	–	CCO/N=C(\C(=O)N[C@@H]1C(=O)N2C(C(=O)[O-])=C(C[n+]3cccc4c3NCN4CCCNC)CS[C@H]12)c1nsc(N)n1 [Example 6(2)]
–	0.565	0.001	94.8%	pale	100.0%	–	pale	Yellow	Yellow	1.338	pale	pale	92.9%	CCO/N=C(\C(=O)N[C@@H]1C(=O)N2C(C(=O)[O-])=C(C[n+]3cccc4c3ncn4CCCNC)CS[C@H]12)c1nsc(N)n1 [hydrochloride, reference compound]
